Data from patent publication US20260317356A1, “SMALL MOLECULE MODULATORS OF OGG1” (AZKARRA THERAPEUTICS, INC., priority 2023, published 2026).

Legend:
hOGG1 [1] = target: T1, hOGG1 (Homo sapiens, UniProt O15527); test: Surface Plasma Resonance with hOGG1 to measure compound affinity (OGG1 SPR Kd); type: binding; design: Protein His-hOGG1 (12-323) was prepared; conditions: Biacore T-200, immobilized his-tagged OGG1; pH 7.4; 2% DMSO; single-cycle kinetics
Method: Surface Plasma Resonance with hOGG1 to Measure Compound Affinity (OGG1 SPR Kd); All the SPR studies were performed on a Biacore T-200 instrument (Cytiva life sciences) using series S NTA sensor chip (cat #BR-1005-32, Cytiva life sciences). Recombinant his-tagged OGG1 (mol. wt. 36003; ChemPartner, Shanghai, China) was immobilized on NTA sensor chip via Ni^2+/NTA chelation using NTA reagent kit (Cytiva life sciences; cat #289950) as per manufacturer's recommended protocol. The running buffer during immobilization contained HEPES (20 mM, pH 7.4), 150 mM NaCl, 0.5 mM TCEP (tris(2-carboxyethyl)phosphine), and 0.005% Tween-20. NTA sensor chip (experimental cell) was first conditioned by injecting regeneration solution (350 mM EDTA, flow rate 30 μL/min, 2 injections 60 each). Additional wash with 50 mM NaOH was used whenever the chip was regenerated (flow rate 30 μL/min, 1 injection of 60 s). The sensor chip was then activated with 0.5 mM NiCl2 (flow rate 10 μL/min, 2 injection of 60 s, leading to a baseline increase of ~40 RU), and the excess Ni^2+ was removed using immobilization buffer containing 3 mM EDTA (flow rate 10 μL/min, 1 injection of 60 s). Finally, OGG1 (diluted to 6.2 μg/mL in running buffer) was injected on the activated sensor chip at a flow rate of 10 μL/min until immobilization level reached ~6000 RU. Any loosely bound protein was removed by passing the immobilization buffer overnight at 20 μL/min. At this point, the drift in baseline was ~0.01 RU/s and the final immobilization level was ~2500 RU. Reference cell was left untreated. SPR binding experiments were performed using binding buffer (20 mM HEPES (pH 7.4), 150 mM NaCl, 0.5 mM TCEP, 0.005% Tween-20, and 2% DMSO) at a flow rate of 30 μL/min. Single-cycle kinetics approach was used for binding analysis which consisted of sequential injections of increasing concentrations of test compound (a 3-fold serial dilution with 5 concentrations; highest 750 or 1500 nM; with final DMSO concentration at 2%) over the immobilized protein without regeneration step between each sample injection. Each injection was 45 seconds long (contact time), followed by a final dissociation of 600 sec. The Biacore T-200 Evaluation software 3.1 (GE Healthcare) was used to determine kinetic parameters from SPR data. All the reported sensograms were reference subtracted and corrected for refractive index contributions from solvent using 8-point solvent correction (1.4 to 2.8% DMSO in binding buffer). Data were fit to both steady state and 1:1 kinetic model to obtain Kon, Koff and binding affinity (Kd).

hOGG1 [2] = target: T1, hOGG1; test: Biochemical fluorescence assay to measure enzymatic activity of hOGG1 (OGG1/APEX IC50); design: Protein His-hOGG1 (12-323) was prepared; His (N); host or cells: E. coli; conditions: 1 nM OGG1+2 nM APEX+6 nM dsDNA (8-oxo-dG substrate); pH 7.5; RT 40 min; read-out: OGG1/APEX IC50
Summary of the method: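 His-hOGG1 (12-323, E. coli) at 1 nM with 2 nM hAPE1/APEX1, preincubated 20 min RT with compound. Then 6 nM 8-oxo-dG dsDNA substrate added, 40 min at RT in Tris pH 7.5, 100 mM KCl. TAMRA fluorescence (Ex520/Em600) converted to % inhibition vs controls; IC50 from 3-parameter fit of 10-point curve.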

T1 sequence (O15527 12-323): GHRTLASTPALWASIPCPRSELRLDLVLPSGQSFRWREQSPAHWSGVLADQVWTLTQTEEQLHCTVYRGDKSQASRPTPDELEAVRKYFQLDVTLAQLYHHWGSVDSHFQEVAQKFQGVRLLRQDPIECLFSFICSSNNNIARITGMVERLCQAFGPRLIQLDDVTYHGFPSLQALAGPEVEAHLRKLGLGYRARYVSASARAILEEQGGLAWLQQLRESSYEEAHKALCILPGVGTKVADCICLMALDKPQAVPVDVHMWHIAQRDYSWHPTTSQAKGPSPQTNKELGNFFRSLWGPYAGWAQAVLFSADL

| Compound | Kd (hOGG1 [1]) [nM] | IC50 (hOGG1 [2]) [nM] |
| --- | --- | --- |
| COc1cc(NC(=O)[C@H]2CC[C@@H](N3Cc4c(C)ccc(P(C)(C)=O)c4NC3=O)CC2)ccc1C [Example 5, (1s,4s)-4-(8-(Dimethylphosphoryl)-5-methyl-2-oxo-1,2-dihydroquinazolin-3(4H)-yl)-N-(3-methoxy-4-methylphenyl)cyclohexanecarboxamide] | ≤ 10 | 100 to 1000 |
| COc1cc(NC(=O)[C@H]2CC[C@@H](N3Cc4c(C)cnc(CNC(C)=O)c4NC3=O)CC2)ccc1C [Example 19, (1s,4s)-4-(8-(Acetamidomethyl)-5-methyl-2-oxo-1,2-dihydropyrido[3,4-d]pyrimidin-3(4H)-yl)-N-(3-methoxy-4-methylphenyl)cyclohexanecarboxamide] | ≤ 10 | < 100 |
| COc1cc(NC(=O)[C@H]2CC[C@@H](N3Cc4c(C)cc(N5CC6(COC6)C5)cc4NC3=O)CC2)ccc1C [Example 30, (1s,4s)-N-(3-Methoxy-4-methylphenyl)-4-(5-methyl-2-oxo-7-(2-oxa-6-azaspiro[3.3]heptan-6-yl)-1,2-dihydroquinazolin-3(4H)-yl)cyclohexanecarboxamide] | 100 to 1000 | < 100 |
| COc1cc(NC(=O)[C@H]2CC[C@@H](N3Cc4c(C)ccnc4NC3=O)CC2)ccc1C [Example 41, (1s,4s)-N-(3-Methoxy-4-methylphenyl)-4-(5-methyl-2-oxo-1,2-dihydropyrido[2,3-d]pyrimidin-3(4H)-yl)cyclohexanecarboxamide] | 10 to 100 | < 100 |
| COc1cc(NC(=O)[C@H]2CC[C@@H](N3Cc4c(C)ccc(N5CC6(COC6)C5)c4NC3=O)CC2)ccc1C [Example 35, (1s,4s)-N-(3-Methoxy-4-methylphenyl)-4-(5-methyl-2-oxo-8-(2-oxa-6-azaspiro[3.3]heptan-6-yl)-1,2-dihydroquinazolin-3(4H)-yl)cyclohexanecarboxamide] | 10 to 100 | 100 to 1000 |
| COc1ccc(NC(=O)[C@]2(C)CC[C@H](N3Cc4c(C)ccc(OC)c4NC3=O)CC2)cc1C (single isomer, unassigned) [Example 11, (1s,4s)-N-(3-methyl-4-methoxyphenyl)-4-(8-methoxy-5-methyl-2-oxo-1,2-dihydroquinazolin-3(4H)-yl)-1-methylcyclohexanecarboxamide] | ≤ 10 | < 100 |
| COc1ccc(NC(=O)[C@H]2CC[C@@H](N3Cc4c(C)ccnc4NC3=O)CC2)cc1 [Example 15, (1s,4s)-N-(4-methoxyphenyl)-4-(5-methyl-2-oxo-1,2-dihydropyrido[2,3-d]pyrimidin-3(4H)-yl)cyclohexanecarboxamide] | 10 to 100 | 1000 to 10000 |
| COc1cc(NC(=O)[C@H]2CC[C@@H](N3Cc4c(C)ccc(CNC(C)=O)c4NC3=O)CC2)ccc1C [Example 17, (1s,4s)-4-(8-(Acetamidomethyl)-5-methyl-2-oxo-1,2-dihydroquinazolin-3(4H)-yl)-N-(3-methoxy-4-methylphenyl)cyclohexanecarboxamide] | ≤ 10 | < 100 |
| COc1ccc(NC(=O)[C@H]2CC[C@@H](N3Cc4c(C)ccnc4NC3=O)CC2)cc1Cl [Example 14, (1s,4s)-N-(3-Chloro-4-methoxyphenyl)-4-(5-methyl-2-oxo-1,2-dihydropyrido[2,3-d]pyrimidin-3(4H)-yl)cyclohexanecarboxamide] | 10 to 100 | 100 to 1000 |
| COc1cc(NC(=O)[C@H]2CC[C@@H](N3Cc4c(C)cc(CN)cc4NC3=O)CC2)ccc1C [Example 28, (1s,4s)-4-(7-(Aminomethyl)-5-methyl-2-oxo-1,2-dihydroquinazolin-3(4H)-yl)-N-(3-methoxy-4-methylphenyl)cyclohexanecarboxamide] | ≤ 10 | < 100 |

Now from value to compound:

| Kd (hOGG1 [1]) [nM] | IC50 (hOGG1 [2]) [nM] | Compound |
| --- | --- | --- |
| 10 to 100 | < 100 | COc1ccc(NC(=O)[C@H]2CC[C@@H](N3Cc4c(C)cc(NCCN(C)C)cc4C3=O)CC2)cc1C#N [Example 259, (1s,4s)-N-(3-Cyano-4-methoxyphenyl)-4-(6-(2-(dimethylamino)ethylamino)-4-methyl-1-oxoisoindolin-2-yl)cyclohexanecarboxamide] |
| 10 to 100 | 100 to 1000 | COc1cc(NC(=O)[C@]2(C)CC[C@H](N3Cc4c(C)cccc4C3=O)CC2)ccc1C [Example 277, (1s,4s)-N-(3-methoxy-4-methylphenyl)-1-methyl-4-(4-methyl-1-oxoisoindolin-2-yl)cyclohexane-1-carboxamide] |
| 10 to 100 | < 100 | CNCCNc1cc(C)c2c(c1)C(=O)N([C@H]1CC[C@@H](C(=O)Nc3ccc(C)c(OC)c3)CC1)C2 [Example 193, (1s,4s)-N-(3-methoxy-4-methylphenyl)-4-(4-methyl-6-(2-(methylamino)ethylamino)-1-oxoisoindolin-2-yl)cyclohexanecarboxamide] |
| 10 to 100 | < 100 | COc1cc(NC(=O)[C@H]2CC[C@@H](N3Cc4c(C)ccc(OC5CNC5)c4NC3=O)CC2)ccc1C [Example 45] |
| 10 to 100 | < 100 | COc1cc(NC(=O)[C@H]2CC[C@@H](N3Cc4c(C)ccc(C#N)c4NC3=O)CC2)ccc1C [Example 59, (1s,4s)-4-(8-cyano-5-methyl-2-oxo-1,2-dihydroquinazolin-3(4H)-yl)-N-(3-methoxy-4-methylphenyl)cyclohexanecarboxamide] |
| 10 to 100 | 100 to 1000 | COc1cc(NC(=O)[C@H]2CC[C@@H](N3Cc4c(C)cc(OCCN5CC(F)(F)C5)cc4C3=O)CC2)ccc1C [Example 255, (1s,4s)-4-(6-(2-(3,3-Difluoroazetidin-1-yl)ethoxy)-4-methyl-1-oxoisoindolin-2-yl)-N-(3-methoxy-4-methylphenyl)cyclohexanecarboxamide] |
| 10 to 100 | < 100 | COc1cc(NC(=O)[C@H]2CC[C@@H](N3Cc4c(C)ccc(OC)c4NC3=O)CC2)ccc1C [Example 47, (1s,4s)-N-(3-Methoxy-4-methylphenyl)-4-(8-methoxy-5-methyl-2-oxo-1,2-dihydroquinazolin-3(4H)-yl)cyclohexanecarboxamide] |
| 10 to 100 | < 100 | COc1ccc(NC(=O)[C@H]2CC[C@@H](N3Cc4c(C)cc(NCCN(C)C)cc4C3=O)CC2)cc1Cl [Example 260, (1s,4s)-N-(3-Chloro-4-methoxyphenyl)-4-(6-(2-(dimethylamino)ethylamino)-4-methyl-1-oxoisoindolin-2-yl)cyclohexanecarboxamide] |
| 10 to 100 | 100 to 1000 | COc1ccc(NC(=O)[C@H]2CC[C@@H](N3Cc4c(C)cccc4C3=O)CC2)cc1C#N [Example 239, (1s,4s)-N-(3-Cyano-4-methoxyphenyl)-4-(4-methyl-1-oxoisoindolin-2-yl)cyclohexanecarboxamide] |
| 10 to 100 | < 100 | COc1cc(NC(=O)[C@H]2CC[C@@H](N3Cc4c(C)ccc(OCC5CNC5)c4NC3=O)CC2)ccc1C [Example 44, (1s,4s)-4-(8-(Azetidin-3-ylmethoxy)-5-methyl-2-oxo-1,2-dihydroquinazolin-3(4H)-yl)-N-(3-methoxy-4-methylphenyl)cyclohexanecarboxamide] |
| 10 to 100 | 100 to 1000 | COc1ccc(NC(=O)[C@H]2CC[C@@H](N3Cc4c(C)cccc4C3=O)CC2)cc1C [Example 227, (1s,4s)-N-(4-Methoxy-3-methylphenyl)-4-(4-methyl-1-oxoisoindolin-2-yl)cyclohexanecarboxamide] |
| 10 to 100 | 100 to 1000 | COc1cc(NC(=O)[C@H]2CC[C@@H](N3Cc4ccccc4NC3=O)CC2)ccc1C [Example 67, (1s,4s)-N-(3-methoxy-4-methylphenyl)-4-(2-oxo-1,2-dihydroquinazolin-3(4H)-yl)cyclohexanecarboxamide] |
